According to the supplement of paper PMC10307832:

Assays:
Assay in all cases: relative viability (nuclei count vs DMSO), 5 days (fraction); higher = more cells survive
GW-2580 + Phenformin = compound: COC1=CC=C(C=C1)COC2=C(C=C(C=C2)CC3=CN=C(N=C3N)N)OC [GW-2580] + N=C(N)NC(=N)NCCc1ccccc1 [Phenformin] (partner 250 µM)
Procedure, shortened: (§1)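 Lung cancer cell lines were pin-tool dosed in 1536-well plates on the day after seeding, with either a lone drug or a fixed anchor-drug dose plus five library-drug doses (not always all listed) in √10 steps. Nuclei were counted on 4× images after 5 days. Relative viability is the ratio of treated-well to vehicle-well nuclei counts, with each value a median of duplicate plates.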

Fedratinib + Palbociclib = compound: Cc1cnc(Nc2ccc(OCCN3CCCC3)cc2)nc1Nc1cccc(S(=O)(=O)NC(C)(C)C)c1 [Fedratinib] + CC(=O)c1c(C)c2cnc(Nc3ccc(N4CCNCC4)cn3)nc2n(C2CCCC2)c1=O [Palbociclib] (partner 0.5 µM)
Procedure, shortened: as §1

Fedratinib + Pictilisib = compound: Cc1cnc(Nc2ccc(OCCN3CCCC3)cc2)nc1Nc1cccc(S(=O)(=O)NC(C)(C)C)c1 [Fedratinib] + CS(=O)(=O)N1CCN(Cc2cc3nc(-c4cccc5[nH]ncc45)nc(N4CCOCC4)c3s2)CC1 [Pictilisib] (partner 1 µM)
Procedure, shortened: as §1

Fedratinib + Tozasertib = compound: Cc1cnc(Nc2ccc(OCCN3CCCC3)cc2)nc1Nc1cccc(S(=O)(=O)NC(C)(C)C)c1 [Fedratinib] + Cc1cc(Nc2cc(N3CCN(C)CC3)nc(Sc3ccc(NC(=O)C4CC4)cc3)n2)n[nH]1 [Tozasertib] (partner 0.1 µM)
Procedure, shortened: as §1

Fedratinib + Alpelisib = compound: Cc1cnc(Nc2ccc(OCCN3CCCC3)cc2)nc1Nc1cccc(S(=O)(=O)NC(C)(C)C)c1 [Fedratinib] + Cc1nc(NC(=O)N2CCC[C@H]2C(N)=O)sc1-c1ccnc(C(C)(C)C(F)(F)F)c1 [Alpelisib] (partner 2 µM)
Procedure, shortened: as §1

Fedratinib + Vorinostat = compound: Cc1cnc(Nc2ccc(OCCN3CCCC3)cc2)nc1Nc1cccc(S(=O)(=O)NC(C)(C)C)c1 [Fedratinib] + O=C(CCCCCCC(=O)Nc1ccccc1)NO [Vorinostat] (partner 1 µM)
Procedure, shortened: as §1

| Cell Line | relative viability (GW-2580 + Phenformin; first compound 0.08 µM) | relative viability (GW-2580 + Phenformin; first compound 0.8 µM) | relative viability (GW-2580 + Phenformin; first compound 2.53 µM) | relative viability (GW-2580 + Phenformin; first compound 8 µM) | relative viability (Fedratinib + Palbociclib; first compound 0.1 µM) | relative viability (Fedratinib + Palbociclib; first compound 0.3162 µM) | relative viability (Fedratinib + Palbociclib; first compound 1 µM) | relative viability (Fedratinib + Pictilisib; first compound 0.1 µM) | relative viability (Fedratinib + Pictilisib; first compound 0.3162 µM) | relative viability (Fedratinib + Pictilisib; first compound 1 µM) | relative viability (Fedratinib + Tozasertib; first compound 0.1 µM) | relative viability (Fedratinib + Tozasertib; first compound 0.3162 µM) | relative viability (Fedratinib + Tozasertib; first compound 1 µM) | relative viability (Fedratinib + Alpelisib; first compound 0.1 µM) | relative viability (Fedratinib + Alpelisib; first compound 0.3162 µM) | relative viability (Fedratinib + Alpelisib; first compound 1 µM) | relative viability (Fedratinib + Vorinostat; first compound 0.1 µM) | relative viability (Fedratinib + Vorinostat; first compound 0.3162 µM) | relative viability (Fedratinib + Vorinostat; first compound 1 µM) |
| --- | --- | --- | --- | --- | --- | --- | --- | --- | --- | --- | --- | --- | --- | --- | --- | --- | --- | --- | --- |
| 201T | 0.466 | 0.418 | 0.461 | 0.433 | 0.362 | 0.342 | 0.33 | 0.679 | 0.705 | 0.601 | 0.609 | 0.904 | 0.874 | 1.04 | 0.974 | 0.99 | 0.935 | 0.975 | 0.955 |
| A549 | 0.19 | 0.193 | 0.105 | 0.0849 |  |  |  | 0.531 | 0.465 | 0.434 |  |  |  | 0.74 | 0.691 | 0.622 |  |  |  |
| A-427 | 0.407 | 0.258 | 0.303 | 0.269 | 0.505 | 0.492 | 0.487 | 0.639 | 0.758 | 0.329 | 0.183 | 0.194 | 0.16 | 1.07 | 0.949 | 0.959 | 0.873 | 0.792 | 0.781 |
| ABC-1 | 0.236 | 0.226 | 0.234 | 0.224 | 0.691 | 0.704 | 0.609 | 0.694 | 0.809 | 0.318 | 0.179 | 0.146 | 0.138 | 0.979 | 0.994 | 1.12 | 0.983 | 1.06 | 0.888 |
| BEN | 0.266 | 0.33 | 0.255 | 0.317 | 0.473 | 0.429 | 0.471 | 0.477 | 0.575 | 0.498 | 0.507 | 0.464 | 0.45 | 0.83 | 0.972 | 0.891 | 0.544 | 0.577 | 0.55 |
| CAL-12T | 0.624 | 0.613 | 0.609 | 0.514 | 0.295 | 0.411 | 0.446 | 0.454 | 0.615 | 0.162 | 0.285 | 0.304 | 0.322 | 1.13 | 1.16 | 1.06 | 0.747 | 0.84 | 0.681 |
| COR-L23 | 0.458 | 0.53 | 0.478 | 0.463 | 0.303 | 0.26 | 0.131 | 0.891 | 0.809 | 0.707 | 0.103 | 0.186 | 0.168 | 0.752 | 0.74 | 0.778 | 0.407 | 0.487 | 0.392 |
| COR-L 105 | 0.529 | 0.478 | 0.508 | 0.491 | 0.393 | 0.41 | 0.405 | 0.364 | 0.471 | 0.284 | 0.362 | 0.361 | 0.338 | 1.04 | 1.06 | 0.793 | 0.825 | 0.904 | 0.676 |
| Calu-6 |  |  |  |  |  |  |  | 0.845 | 0.866 | 0.736 |  |  |  | 0.915 | 0.906 | 0.801 |  |  |  |
| ChaGo-K-1 | 0.594 | 0.476 | 0.454 | 0.514 | 0.966 | 0.814 | 0.961 | 0.487 | 1 | 0.289 | 0.213 | 0.245 | 0.217 |  |  |  | 0.74 | 0.757 | 0.718 |
| EBC-1 |  |  |  |  |  |  |  | 0.27 | 0.33 | 0.251 |  |  |  | 0.743 | 0.808 | 0.592 |  |  |  |
| IA-LM |  |  |  |  |  |  |  | 0.26 | 0.288 | 0.199 |  |  |  | 0.563 | 0.758 | 0.658 | 0.901 | 0.95 | 0.979 |
| NCI-H522 | 0.659 | 0.638 | 0.959 | 0.754 | 0.847 | 0.893 | 1.03 |  |  |  | 0.527 | 0.514 | 0.573 |  |  |  | 0.703 | 0.82 | 0.895 |
| NCI-H596 | 0.92 | 0.657 | 0.811 | 0.804 |  |  |  | 0.342 | 0.388 | 0.366 | 0.899 | 0.878 | 0.916 | 0.459 | 0.576 | 0.506 | 0.602 | 0.573 | 0.439 |
| NCI-H1299 |  |  |  |  |  |  |  | 0.629 | 0.688 | 0.529 |  |  |  | 1.08 | 1.07 | 1.05 |  |  |  |
| NCI-H1563 | 0.69 | 0.679 | 0.647 | 0.637 |  |  |  | 0.608 | 0.711 | 0.712 |  |  |  | 0.853 | 0.909 | 0.916 |  |  |  |
| NCI-H1648 |  |  |  |  | 0.257 | 0.262 | 0.25 |  |  |  | 0.409 | 0.567 | 0.422 |  |  |  | 0.291 | 0.36 | 0.616 |
| NCI-H1650 | 0.516 | 0.461 | 0.372 | 0.536 | 0.299 | 0.408 | 0.288 | 0.355 | 0.571 | 0.155 |  | 0.408 | 0.335 |  |  |  | 0.433 | 0.581 | 0.605 |
| NCI-H1703 |  |  |  |  |  |  |  | 0.244 | 0.233 | 0.204 |  |  |  | 0.161 | 0.361 | 0.25 |  |  |  |
| NCI-H1792 | 0.4 | 0.226 | 0.146 | 0.313 | 0.684 | 0.622 | 0.611 | 0.257 | 0.289 | 0.227 |  |  |  | 0.458 | 0.662 | 0.666 |  |  |  |
| NCI-H2342 | 0.57 | 0.725 | 0.509 | 0.567 | 0.531 | 0.606 | 0.593 |  |  |  | 0.51 | 0.713 | 0.695 |  |  |  | 0.94 | 0.71 | 0.926 |
| SW 900 | 0.856 | 0.632 | 0.472 | 0.633 | 0.547 | 0.514 | 0.47 |  |  |  | 0.358 | 0.502 | 0.434 |  |  |  | 0.344 | 0.377 | 0.462 |
